From patent US20150051202A1, “TRIAZOLOPYRAZINE DERIVATIVES” (Merck Patent GmbH, priority 2012, published 2015)

How the values were obtained:
SYK = molecular target: T1, SYK (Homo sapiens, UniProt P43405); assay: SYK enzyme assay (Flash plate assay / Caliper mobility shift assay); format: biochemical; details: for SYK (enzyme assay) % at 3 μM: 100% corresponds to zero effect, −50% corresponds to IC50
T1 construct: purchased BPS Bioscience, CA, USA
Method: The kinase assay is performed either as 384-well Flashplate assay (for e.g. Topcount measurement) or as 384-well Image-Flashplate assay (for LEADseeker measurement).
2.5 nM SYK, 400 nM Biotin-Aha-Aha-[…]
and 10 μM ATP (spiked with 0.3 μCi 33P-ATP/well) are incubated in a total volume of 50 μl (60 mM Hepes, 10 mM MgCl2, 1.2 mM Dithiothreitol, 0.02% Brij35, 0.1% BSA, pH 7.5) with or without test compound for 1 hours at 30° C. The reaction is stopped with 25 μl 200 mM EDTA. After 30 Min at 30° C. the liquid is removed and each well washed thrice with 100 μl 0.9% sodium chloride solution. Non-specific reaction is determined in presence of 0.1 μM Staurosporine. Radioactivity is measured with Topcount (when using Flashplates) or with LEADseeker (when using Image-Flashplates) respectively. Results (e.g. IC50-values) are calculated with program tools provided by the IT-department (e.g. Symyx Assay Explorer, Genedata Screener).
Enzymatic Assays Using the Caliper LifeSciences Technology
The assays described here are performed on the Caliper Life Sciences LC3000 system This technology provides data on enzyme activity via measurement of the relative amounts of phosphorylated or unphosphorylated fluorescently labelled substrate peptide at the end of an enzymatic reaction.
These different states of peptide are resolved by applying a potential difference across the sample. The presence of the charged phosphate group on the product (as opposed to the substrate) causes a different peptide mobility between the two peptides. This is visualized by excitation of the fluorescent label on the substrate and product peptides and represented as peaks within the analysis software.
In order to measure inhibitor activity of kinase inhibitors on this technology, a TTP Mosquito liquid handling instrument is used to place 0.25 ul of the appropriate concentration of inhibitor in 100% DMSO (for a dose response curve calculation) into each well of a 384-well plate. To this reaction components are added to a final volume of 25 ul. The table below indicates the sequences and concentrations for the assays described in this report. Standard components are 1 mM DTT (Sigma, D0632), 1 mM MgCl2 (Sigma, M1028), 100 mM HEPES pH 7.5 (Calbiochem, 391338), 0.015% Brij-35 (Sigma, B4184).
The reaction is incubated for 90 min at 25 C, and then stopped by the addition of 70 ul of Stop buffer (100 mM HEPES pH 7.5, 0.015% Brij-35, 10 mM EDTA (Sigma, E7889)).
The plate is read on a Caliper LC 3000 in an Off-Chip mobility shift assay format, on a 12-sipper chip. Unphosphorylated substrate and phosphorylated product peptide resolve as separate peaks allowing direct measurement of percentage of conversion of substrate to product. The percent conversion can be plotted against concentration of inhibitor to produce a sigmoidal dose response curve, from which an IC50 can be calculated using GeneData Condoseo or a similar product.

GCN2 = GCN2 (Homo sapiens, UniProt Q9P2K8); assay: GCN2 enzyme assay (TR-FRET Lanthascreen, GFP-eIF2alpha substrate); format: biochemical; details: for GCN2 (enzyme assay) % at 10 μM: 100% corresponds to zero effect, −50% corresponds to IC50
Source text: GCN2: Assay Principle & Conditions
This assay can quantificate the activity of the serin kinase GCN2 (general control non-derepressible-2).
This kinase is involved in the stress metabolism of cells. It is activated upon starvation (amino acid depletion). Its natural substrate is eIF2a (eukaryotic initiation factor 2 alpha subunit), a translation factor, which gets activated (phosphorylated) by GCN2 in case of an amino acid bottleneck in the cells. This in turn leads to a halt of the protein synthesis. Inhibition of GCN2 results in stopping this mechanism: The cell can not stop protein production upon “starvation” stress.
The assay is run in two steps: the enzymatic reaction and the detection step. In the first step GCN2 is incubated with 10 μM ATP and 80 nM of the GFP-labelled substrate eIF2alpha at room temperature.
The enzymatic reaction is stopped by addition of EDTA. The amount of phosphorylated eIF2alpha is determined by TR-FRET (Lanthascreen): A complex is formed consisting of antibody and GFP labelled phospho-eIF2a, which allows a FRET upon exitation at 340 nm.
Final Concentrations in the Enzymatic Reaction • Hepes, pH 7.0 50 mM • MgCl2 10 mM • MnCl2 5 mM • BSA 0.1% • DMSO 1% • ATP 10 uM • DTT 2 mM • GFP-eIF2a 80 nM (substrate) • GCN2 30 nM (enzyme)

GCN2, sequence (Q9P2K8 whole entry): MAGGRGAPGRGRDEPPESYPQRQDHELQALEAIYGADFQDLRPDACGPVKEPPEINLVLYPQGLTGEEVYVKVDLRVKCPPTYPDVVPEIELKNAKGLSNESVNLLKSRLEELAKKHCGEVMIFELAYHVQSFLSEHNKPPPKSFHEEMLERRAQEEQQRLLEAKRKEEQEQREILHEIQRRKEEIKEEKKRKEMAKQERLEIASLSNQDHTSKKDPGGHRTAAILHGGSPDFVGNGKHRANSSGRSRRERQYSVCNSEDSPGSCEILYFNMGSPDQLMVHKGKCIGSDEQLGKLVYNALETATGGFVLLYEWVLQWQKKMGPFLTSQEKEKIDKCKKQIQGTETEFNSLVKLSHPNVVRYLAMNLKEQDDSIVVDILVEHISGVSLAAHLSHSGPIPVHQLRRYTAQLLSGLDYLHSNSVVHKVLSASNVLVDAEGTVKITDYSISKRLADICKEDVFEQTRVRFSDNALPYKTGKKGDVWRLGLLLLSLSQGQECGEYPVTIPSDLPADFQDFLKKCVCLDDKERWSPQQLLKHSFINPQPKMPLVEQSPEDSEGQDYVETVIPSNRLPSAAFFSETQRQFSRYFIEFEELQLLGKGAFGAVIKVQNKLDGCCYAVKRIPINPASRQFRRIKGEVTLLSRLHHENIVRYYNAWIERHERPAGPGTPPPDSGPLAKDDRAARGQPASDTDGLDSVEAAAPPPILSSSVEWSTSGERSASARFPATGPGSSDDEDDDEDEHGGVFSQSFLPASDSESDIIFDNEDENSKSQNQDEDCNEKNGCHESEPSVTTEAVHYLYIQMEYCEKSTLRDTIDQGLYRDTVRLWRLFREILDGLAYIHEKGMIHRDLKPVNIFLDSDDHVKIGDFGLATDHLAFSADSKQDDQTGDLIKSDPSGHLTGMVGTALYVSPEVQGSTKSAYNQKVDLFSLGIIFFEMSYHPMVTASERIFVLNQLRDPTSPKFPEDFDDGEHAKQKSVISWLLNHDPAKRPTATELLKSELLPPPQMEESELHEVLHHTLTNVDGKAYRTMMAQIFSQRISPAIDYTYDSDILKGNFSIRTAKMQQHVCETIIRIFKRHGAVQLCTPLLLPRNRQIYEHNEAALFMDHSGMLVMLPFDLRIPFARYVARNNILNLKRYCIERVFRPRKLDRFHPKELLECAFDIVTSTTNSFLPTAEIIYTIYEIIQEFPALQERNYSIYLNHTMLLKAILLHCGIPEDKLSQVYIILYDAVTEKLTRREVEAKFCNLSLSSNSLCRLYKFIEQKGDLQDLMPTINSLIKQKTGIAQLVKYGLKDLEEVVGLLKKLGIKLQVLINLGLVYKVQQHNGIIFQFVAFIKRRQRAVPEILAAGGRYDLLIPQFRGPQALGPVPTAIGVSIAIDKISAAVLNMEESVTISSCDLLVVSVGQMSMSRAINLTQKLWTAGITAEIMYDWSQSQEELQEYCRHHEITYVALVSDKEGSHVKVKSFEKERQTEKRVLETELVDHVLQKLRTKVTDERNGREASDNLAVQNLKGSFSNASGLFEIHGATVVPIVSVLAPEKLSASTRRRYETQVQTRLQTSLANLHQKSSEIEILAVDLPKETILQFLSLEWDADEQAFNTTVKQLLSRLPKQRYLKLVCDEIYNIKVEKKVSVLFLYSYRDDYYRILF

SMILES	IC50 (SYK) [nM]	IC50 (GCN2) [nM]	SYK (enzyme assay) % at 3 μM (SYK)	GCN2 (enzyme assay) % at 10 μM (GCN2)
Cn1cc(-c2cncc3nc(Nc4ccc5c(c4)NC(=O)C5(C)C)nn23)cn1 [Compound A13, 3,3-dimethyl-6-[5-(1-methyl-1H-pyrazol-4-yl)-[1,2,4]triazolo[1,5-a]pyrazin-2-ylamino]-1,3-dihydro-indol-2-one]	< 1000	< 1000		
CN(C)Cc1nc2cc(Nc3nc4cncc(-c5cnn(C)c5)n4n3)ccc2[nH]1 [Compound A14]	1000 to 5000	< 1000		
O=C1Cc2cc(Nc3nc4cncc(-c5ccc(N6CCOCC6)cc5)n4n3)ccc2N1 [Compound A15, 5-[5-(4-morpholin-4-yl-phenyl)-[1,2,4]triazolo[1,5-a]pyrazin-2-ylamino]-1,3-dihydro-indol-2-one]	1000 to 5000	< 1000		
c1cncc(Nc2nc3cncc(-c4ccc(N5CCOCC5)cc4)n3n2)c1 [Compound A16, [5-(4-morpholin-4-yl-phenyl)-[1,2,4]triazolo[1,5-a]pyrazin-2-yl]-pyridin-3-yl-amine]		< 1000	1.5@3%	
Cc1cc(Nc2nc3cncc(-c4ccc(N5CCOCC5)cc4)n3n2)ccc1N1CCN(C)CC1 [Compound A17, [3-methyl-4-(4-methyl-piperazin-1-yl)-phenyl]-[5-(4-morpholin-4-yl-phenyl)-[1,2,4]triazolo[1,5-a]pyrazin-2-yl]-amine]	1000 to 5000	< 1000		
Clc1cn2nc(Nc3cccnc3)nc2cn1 [Compound A20]		1000 to 5000	1@3%	
COc1cccc(Nc2nc3cnc(Br)cn3n2)c1 [Compound A22]		< 1000	−15@3%	
c1cncc(Nc2nc3cnc(-c4cccnc4)cn3n2)c1 [Compound A25, pyridin-3-yl-(6-pyridin-3-yl-[1,2,4]triazolo[1,5-a]pyrazin-2-yl]-amine]		1000 to 5000	−8@3%	
Fc1ccc(-c2cncc3nc(Nc4cccnc4)nn23)cc1 [Compound A27, [5-(4-fluoro-phenyl)-[1,2,4]triazolo[1,5-a]pyrazin-2-yl]-pyridin-3-yl-amine]		1000 to 5000	−6@3%	
COc1cccc(Nc2nc3cncc(-c4ccccc4)n3n2)c1 [Compound A28]		< 1000	−2@3%	
COc1cccc(Nc2nc3cncc(-c4cnn(C)c4)n3n2)c1 [Compound A30]		< 1000	−33@3%	
c1cc(N2CCOCC2)ccc1Nc1nc2cncc(-c3cn[nH]c3)n2n1 [Compound A31, (4-morpholin-4-yl-phenyl)-[5-(1H-pyrazol-4-yl)-[1,2,4]triazolo[1,5-a]pyrazin-2-yl]-amine]	< 1000	1000 to 5000		
c1ccc2ncc(-c3cncc4nc(Nc5ccc(N6CCOCC6)cc5)nn34)cc2c1 [Compound A32, (4-morpholin-4-yl-phenyl)-(5-quinolin-3-yl-[1,2,4]triazolo[1,5-a]pyrazin-2-yl)-amine]		1000 to 5000	−35@3%	
CC(C)(C#N)c1ccc(-c2cncc3nc(Nc4ccc(N5CCOCC5)cc4)nn23)cc1 [Compound A34, 2-Methyl-2-{4-[2-(4-morpholin-4-yl-phenylamino)-[1,2,4]triazolo[1,5-a]pyrazin-5-yl]-phenyl}-propionitrile]	1000 to 5000	1000 to 5000		
Cn1cc(-c2cncc3nc(Nc4ccc(N5CCOCC5)cc4)nn23)cn1 [Compound A35, [5-(1-methyl-1H-pyrazol-4-yl)-[1,2,4]triazolo[1,5-a]pyrazin-2-yl]-(4-morpholin-4-yl-phenyl)-amine]	< 1000	< 1000		
c1ccc(-c2ccccc2-c2cncc3nc(Nc4ccc(N5CCOCC5)cc4)nn23)cc1 [Compound A36, (5-biphenyl-2-yl-[1,2,4]triazolo[1,5-a]pyrazin-2-yl)-(4-morpholin-4-yl-phenyl)-amine]	1000 to 5000			−4@10%
COc1cc(Nc2nc3cncc(-c4ccccc4-c4ccccc4)n3n2)cc(OC)c1 [Compound A37]	1000 to 5000			3@10%
Cc1ncc2nc(Nc3ccc(N4CCOCC4)cc3)nn2c1-c1cnn(C)c1 [Compound A44, [6-methyl-5-(1-methyl-1H-pyrazol-4-yl)-[1,2,4]triazolo[1,5-a]pyrazin-2-yl]-(4-morpholin-4-yl-phenyl)-amine]	1000 to 5000	5000 to 10000		
Cn1cc(-c2c(-c3ccccc3)ncc3nc(Nc4ccc(N5CCOCC5)cc4)nn23)cn1 [Compound A45, [5-(1-methyl-1H-pyrazol-4-yl)-6-phenyl-[1,2,4]triazolo[1,5-a]pyrazin-2-yl]-(4-morpholin-4-yl-phenyl)-amine]	< 1000			2@10%
Cn1cc(-c2ncc3nc(Nc4ccc(N5CCOCC5)cc4)nn3c2-c2cnn(C)c2)cn1 [Compound A46, [5,6-Bis-(1-methyl-1H-pyrazol-4-yl)-[1,2,4]triazolo[1,5-a]pyrazin-2-yl]-(4-morpholin-4-yl-phenyl)-amine]	1000 to 5000			−8@10%
Cn1cc(-c2cncc3nc(Nc4ccc(C5(C#N)CC5)cc4)nn23)cn1 [Compound A47, 1-{4-[5-(1-methyl-1H-pyrazol-4-yl)-[1,2,4]triazolo[1,5-a]pyrazin-2-ylamino]-phenyl}-cyclopropanecarbonitrile]	< 1000	< 1000		
CN1CCN(c2ccc(Nc3nc4cncc(-c5cnn(CCN6CCOCC6)c5)n4n3)cc2)CC1 [Compound A48, [4-(4-methyl-piperazin-1-yl)-phenyl]-{5-[1-(2-morpholin-4-yl-ethyl)-1H-pyrazol-4-yl]-[1,2,4]triazolo[1,5-a]pyrazin-2-yl}-amine]	5000 to 10000	< 1000		
O=C1Cc2cc(Nc3nc4cncc(-c5cnn(CCN6CCOCC6)c5)n4n3)ccc2N1 [Compound A49, 5-{5-[1-(2-morpholin-4-yl-ethyl)-1H-pyrazol-4-yl]-[1,2,4]triazolo[1,5-a]pyrazin-2-ylamino}-1,3-dihydro-indol-2-one]		1000 to 5000	−19@3%	
Cc1cc(Nc2nc3cncc(-c4cnn(CCN5CCOCC5)c4)n3n2)ccc1N1CCN(C)CC1 [Compound A50, [3-methyl-4-(4-methyl-piperazin-1-yl)-phenyl]-{5-[1-(2-morpholin-4-yl-ethyl)-1H-pyrazol-4-yl]-[1,2,4]triazolo[1,5-a]pyrazin-2-yl}-amine]		< 1000	−32@3%	
Cc1cc(Nc2nc3cncc(-c4cnn(CCC(C)C)c4)n3n2)ccc1N1CCN(C)CC1 [Compound A51, {5-[1-(3-methyl-butyl)-1H-pyrazol-4-yl]-[1,2,4]triazolo[1,5-a]pyrazin-2-yl}-[3-methyl-4-(4-methyl-piperazin-1-yl)-phenyl]-amine]	< 1000	< 1000		
CN1C(=O)Cc2cc(Nc3nc4cncc(-c5cnn(CCN6CCOCC6)c5)n4n3)ccc21 [Compound A52, 1-methyl-5-{5-[1-(2-morpholin-4-yl-ethyl)-1H-pyrazol-4-yl]-[1,2,4]triazolo[1,5-a]pyrazin-2-ylamino}-1,3-dihydro-indol-2-one]		1000 to 5000	−32@3%	
